Laboratory results as given in patent US20230331685A1, “HERBICIDAL COMPOUNDS AND METHODS OF USE THEREOF” (AG Plenus Ltd, priority 2020, published 2023).

Legend:
Assay type in all cases: in vivo
[1] = tested on: Eragrostis tef; assay: LTP post-emergence greenhouse test; details: Dosage 2000 g/ha
[2] = tested on: Ambrosia artemisiifolia; assay: LTP pre-emergence greenhouse test; details: Dosage 2000 g/ha
Protocol: (§1) A basic panel of 8 weed species (Table 3) were sowed in 4×4×7 cm plastic pots containing inert sand (Sweet sand), intensively washed using osmosis water. Each specie was sowed in a separate pot. In each pot 10-15 seeds were sowed according to the specie viability. Sowing was performed one day before application. The plants were grown for 21 days in a controlled greenhouse (26±2° C. day 20±2° C. night). Hood irrigation (tap water+Shefer 5:3:8 8 mM) was given at a 50% water content by weight. Compounds were soluble in water (DDW), and commercial herbicide control was soluble in formulation B (Table 4). Application was conducted with an industrial sprayer (TeeJet 6502E nozzle) at a rate of 2 kg/ha and spray volume of […]. Pre-emergence advanced dose response experiment application was conducted at six rates between 1-0.0312 kg/ha and spray volume of […]. Percentage of emergence was evaluated at 15 DAA. Visual phenotyping was recorded using a scale of 0-6 (0: no visible effect, 6: maximum effect) at 18 DAA. All experiments included an untreated control, a solvent control and a positive control (commercial herbicide A.I.). […] Statistical analysis for plant emergence determined by % emergence ≥50 and T test (pval≤0.05), as well as Wilcox test (pval≤0.05).

[3] = tested on: Setaria viridis; assay: LTP pre-emergence greenhouse test; details: Dosage 2000 g/ha
Protocol: as §1

[4] = tested on: Poa annua; assay: LTP pre-emergence greenhouse test; details: Dosage 2000 g/ha
Protocol: as §1

[5] = tested on: Sinapis alba; assay: LTP pre-emergence greenhouse test; details: Dosage 2000 g/ha
Protocol: as §1

[6] = tested on: Amaranthus palmeri; assay: LTP pre-emergence greenhouse test; details: Dosage 2000 g/ha
Protocol: as §1

[7] = tested on: Matricaria chamomilla; assay: LTP pre-emergence greenhouse test; details: Dosage 2000 g/ha
Protocol: as §1

[8] = tested on: Eragrostis tef; assay: LTP pre-emergence greenhouse test; details: Dosage 2000 g/ha
Protocol: as §1

[9] = tested on: Alopecurus myosuroides; assay: LTP pre-emergence greenhouse test; details: Dosage 2000 g/ha
Protocol: as §1

[10] = tested on: Abutilon theophrasti; assay: LTP pre-emergence greenhouse test; details: Dosage 2000 g/ha
Protocol: as §1

[11] = tested on: Lolium perenne; assay: LTP pre-emergence greenhouse test; details: Dosage 2000 g/ha
Protocol: as §1

[12] = tested on: Phalaris paradoxa; assay: LTP pre-emergence greenhouse test; details: Dosage 2000 g/ha
Protocol: as §1

[13] = tested on: Arabidopsis thaliana; assay: LTP pre-emergence greenhouse test; details: Dosage 2000 g/ha
Protocol: as §1

[14] = tested on: Arabidopsis thaliana; assay: LTP post-emergence greenhouse test; details: Dosage 2000 g/ha
[15] = tested on: Amaranthus tuberculatus; assay: LTP post-emergence greenhouse test; details: Dosage 2000 g/ha
Protocol: A basic panel of eight weed species (Table 3) sowed in 4×4×7 cm plastic pots containing a garden mix (klasmann). Each specie was sowed in a separate pot. In each pot, 10-15 seeds were sowed according to the specie viability. Timing of application determined at a 1-2 true leaf stage. The plants grew for 30 days in a controlled greenhouse (26±2° C. day, 20±2° C. night). Hood irrigation (tap water+Shefer 5:3:8 8 mM) was given at a 50% water content by weight. Two days before application, the tested plants thinned down to three plants per pot. Compounds were soluble in water (DDW), and commercial herbicide control was soluble in formulation B (Table 4). Before application, 1% (v/v) crop oil and 0.02% (v/v) surfactant (Tergitol™ 15-S-7) were added to the solution. […] Plants were evaluated at 3 time points (4, 8, 12 days after application (DAA)). At each time point, visual phenotyping was recorded using a scale of 0-6 (0: no visible effect, 6: maximum effect). […]
Post-emergence advanced wide panel experiment included 24 weed species (Table 5). […] Visual phenotyping was recorded at 4, 11, 17 and 20 DAA using a scale of 0-6 (0: no visible effect, 6: maximum effect). […] Statistical analysis for visual phenotyping determined by a median value of ≥3.5 and Fisher test (pval≤0.05). Statistical analysis for dry weight determined by % inhibition ≥50 and T test (pval≤0.05), as well as Wilcox test (pval≤0.05).

[16] = tested on: Chenopodium album; assay: LTP post-emergence greenhouse test; details: Dosage 2000 g/ha
[17] = tested on: Phalaris paradoxa; assay: LTP post-emergence greenhouse test; details: Dosage 2000 g/ha
[18] = tested on: Conyza canadensis; assay: LTP post-emergence greenhouse test; details: Dosage 2000 g/ha
[19] = tested on: Phalaris minor; assay: LTP post-emergence greenhouse test; details: Dosage 2000 g/ha
[20] = tested on: Matricaria chamomilla; assay: LTP post-emergence greenhouse test; details: Dosage 2000 g/ha
[21] = tested on: Setaria viridis; assay: LTP post-emergence greenhouse test; details: Dosage 2000 g/ha
[22] = tested on: Alopecurus myosuroides; assay: LTP post-emergence greenhouse test; details: Dosage 2000 g/ha
[23] = tested on: monocot and eudicot weeds species; assay: In-planta LTP weed panel, overall assessment; details: monocot and eudicot weeds species; both post-emergence and pre-emergence; most of the species tested
[24] = tested on: Ambrosia artemisiifolia; assay: LTP post-emergence greenhouse test; details: Dosage 2000 g/ha
[25] = tested on: Lolium perenne; assay: LTP post-emergence greenhouse test; details: Dosage 2000 g/ha
[26] = tested on: Stellaria media; assay: LTP post-emergence greenhouse test; details: Dosage 2000 g/ha
[27] = tested on: Lolium multiflorum; assay: LTP post-emergence greenhouse test; details: Dosage 2000 g/ha

C[C@@H](O)[C@@H](N)CCCCC(=O)O [Compound 104, (6S,7R)-6-amino-7-hydroxyoctanoic acid]
Herbicidal activity (In-planta), LTP-Post emergence, Eragrostis tef [1]: 60-100
Herbicidal activity (In-planta), LTP-Pre emergence, Ambrosia artemisiifolia [2]: 0
Herbicidal activity (In-planta), LTP-Pre emergence, Setaria viridis [3]: 100
Herbicidal activity (In-planta), LTP-Pre emergence, Poa annua [4]: 100
Herbicidal activity (In-planta), LTP-Pre emergence, Sinapis alba [5]: 40-60
Herbicidal activity (In-planta), LTP-Pre emergence, Amaranthus palmeri [6]: 80
Herbicidal activity (In-planta), LTP-Pre emergence, Matricaria chamomilla [7]: 80
Herbicidal activity (In-planta), LTP-Pre emergence, Eragrostis tef [8]: 100
Herbicidal activity (In-planta), LTP-Pre emergence, Alopecurus myosuroides [9]: 40
Herbicidal activity (In-planta), LTP-Pre emergence, Abutilon theophrasti [10]: 60-80
Herbicidal activity (In-planta), LTP-Pre emergence, Lolium perenne [11]: 80
Herbicidal activity (In-planta), LTP-Pre emergence, Phalaris paradoxa [12]: 60
Herbicidal activity (In-planta), LTP-Pre emergence, Arabidopsis thaliana [13]: 40-80
Herbicidal activity (In-planta), LTP-Post emergence, Arabidopsis thaliana [14]: 60
Herbicidal activity (In-planta), LTP-Post emergence, Amaranthus tuberculatus [15]: 80
Herbicidal activity (In-planta), LTP-Post emergence, Chenopodium album [16]: 90
Herbicidal activity (In-planta), LTP-Post emergence, Phalaris paradoxa [17]: 80
Herbicidal activity (In-planta), LTP-Post emergence, Conyza canadensis [18]: 95
Herbicidal activity (In-planta), LTP-Post emergence, Phalaris minor [19]: 20-30
Herbicidal activity (In-planta), LTP-Post emergence, Matricaria chamomilla [20]: 70-80
Herbicidal activity (In-planta), LTP-Post emergence, Setaria viridis [21]: 90-95
Herbicidal activity (In-planta), LTP-Post emergence, Alopecurus myosuroides [22]: 95
control of weeds (in words) [23]: excellent control
Herbicidal activity (In-planta), LTP-Post emergence, Ambrosia artemisiifolia [24]: 70-80
Herbicidal activity (In-planta), LTP-Post emergence, Lolium perenne [25]: 85-90
Herbicidal activity (In-planta), LTP-Post emergence, Stellaria media [26]: 95
Herbicidal activity (In-planta), LTP-Post emergence, Lolium multiflorum [27]: 80-90
